Source: EP0812835B1, “OPTICALLY ACTIVE THIAZOLIDINONE DERIVATIVES” (SANKYO COMPANY LIMITED, priority 1995, dated 1996)
Marks after values point to notes of the source that are not given here.

How the values were obtained:
Collateral Vessel [1] = assay: Collateral vessel dilating action by intravenous administration (Collateral Index, carotid artery occlusion); assay type: in vivo, Beagle dogs (male); settings: dose of 0.3 mg/kg, intravenous (inguinal vein), anesthetized dogs
Description: Collateral Vessel Dilating Action by Intravenous Administration
Beagle dogs (male) weighing 9 to 13 kg were anesthetized by intravenous injection of pentobarbital at a dose of 30 mg/kg and tested under artificial respiration. In order to measure the pressure of the left carotid artery, a polyethylene cannula (Atom intravenous catheter 2F) was inserted […] into one branch of the left thyroid artery. The left carotid artery upstream from this pressure measurement site was occluded for 1 minute with an arterial clamp, and the pressure immediately before occlusion (P) and the decrease in peripheral pressure (ΔP) were measured. Next, the test drug was administered through another polyethylene cannula inserted into the inguinal vein. The left carotid artery was occluded for 1 minute after 5, 15, 30, 45 and 60 minutes, and pressure immediately before occlusion (Pa) and the decrease in peripheral pressure (ΔPa) each time were measured. Collateral vessel dilating effect (Collateral Index = CI) of the test drug was determined according to the following formula: CI = 100 - (ΔPa/Pa) x 100/(ΔP/P) [formula]

Collateral Vessel [2] = assay: Collateral vessel dilating action by administration into the portal vein (first-pass effect test); assay type: in vivo, Beagle dogs (male); settings: administered into the portal vein, compared with intravenous administration, 60 minutes
Description: Collateral Vessel Dilating Action by Administration into the Portal Vein
While test specimens were prepared according to the method of Test example 1, the animal was laparotomized along the abdominal median line, and a branch of the mesenteric vein was removed and incised so as to administer the test drug into the portal vein. A polyethylene cannula (Atom intravenous catheter 2F) was inserted antegrade into this vein to reside in the portal vein, and then the test drug was administered through it. In order to test the first-pass effect of the test drug, it was first administered intravenously (inguinal vein) to determine collateral vessel dilating action of the drug for 60 minutes. The same test drug was then administered into the portal vein 2 or 3 hours later to determine collateral vessel dilating action for 60 minutes, and those actions were compared with each other.

aspirin-induced ulcer = assay: Inhibition of aspirin-induced ulcer; assay type: in vivo, Donryu strain male rats; settings: for Inhibition rate (%): 1 hour before aspirin, area of ulceration vs control group
Description: Inhibition of aspirin-induced ulcer
As a test animal, 10 Donryu strain male rats each weighing 200 g-250 g were used in one group. The rats were fasted before the experiment for 24 hours but they could freely drink water. The test compounds were suspended in 0.5% carboxymethyl cellulose (CMC) solution. Meanwhile, for a control group, 0.5% CMC solution was used.
The test compound was orally administered (0.1 ml/100 g body weight) to the rats and an aspirin solution (150 mg/ml: suspended in 0.5% CMC solution) was orally administered (0.1 ml/100 g body weight) to the rats 1 hour later. Four hours after the administration of the aspirin solution, the rats were sacrificed using carbon dioxide gas and the stomach of each rat was taken out. Into the stomachs were poured 10 ml of 1% formalin solution to allow the stomachs to expand, and the stomachs were immersed in 1% formalin solution in a beaker for about 15-20 minutes. Then, each stomach was cut along the greater curvature thereof and an area of the ulceration in the gastric mucosa was measured by means of an image analysis apparatus [Luzex-F: manufactured by Nireko Co., Ltd.]. The average value of the area of the ulceration of each group was calculated from the area of the ulceration of each rat and the inhibition rate was obtained by comparing the average value of the test group with that of the control group.

[3] = Stability of compounds (storage, residual ratio by high pressure liquid chromatography); assay type: physicochemical; settings: for storage stability: in words
Description: About 2 mg of the test compound was accurately weighed and placed in a brown bottle. The bottle was left to stand at a dark place at room temperature (24-26°C) for 4 weeks and a residual ratio (%) of the test compound was measured by high pressure liquid chromatography (column: Inertsil ODS-3, eluting solvent: 10 mM (pH=7.0) phosphoric acid buffer/acetonitrile=80/20).

With `C[C@@H](CO[N+](=O)[O-])NC(=O)[C@@H]1CSC(=O)N1` [Example 1, (4R)-N-[(1S)-1-Methyl-2-nitroxyethyl]-2-oxothiazolidin-4-vl-carboxamide] the “CI(60)” value (Collateral Vessel [1]) was over 10, the “collateral vessel dilating action” value (Collateral Vessel [2]) was “excellent collateral vessel dilating action” and the “Inhibition rate (%)” value (aspirin-induced ulcer; 30 mg/kg orally, p<0.05) was 63.58*^) %. The “Inhibition rate (%)” value (aspirin-induced ulcer; 100 mg/kg orally, p<0.005) was 80.15**^) %, the “Inhibition rate (%)” value (aspirin-induced ulcer; 300 mg/kg orally, p<0.005) was 93.17**^) % and the anti-ulcerative action (aspirin-induced ulcer; result in words, summary of Table 4) was “excellent anti-ulcerative action”. The “Residual ratio (%)” value ([3]; dark place at room temperature (24-26°C) for 4 weeks, brown bottle) was 101.2%, the storage stability ([3]; as compared with the 1:1 mixture of Example 1 and the (4R),(1R)-isomer) was “excellent storage stability” and the storage stability ([3]; as compared with the (4R),(1R)-isomer) was “excellent storage stability”.

For `CCC[C@@H](CO[N+](=O)[O-])NC(=O)[C@@H]1CSC(=O)N1` [Example 5, (4R)-N-[(1S)-1-Propyl-2-nitroxyethyl]-2-oxothiazolidin-4-yl-carboxamide], the “CI(60)” value (Collateral Vessel [1]) was over 10.

With `CC(C)C[C@@H](CO[N+](=O)[O-])NC(=O)[C@@H]1CSC(=O)N1` [Example 8, (4R)-N-[(1S)-1-Isobutyl-2-nitroxyethyl]-2-oxothiazolidin-4-yl-carboxamide] the “CI(60)” value (Collateral Vessel [1]) was over 10.

With `CCCC[C@@H](CO[N+](=O)[O-])NC(=O)[C@@H]1CSC(=O)N1` [Example 6, (4R)-N-[(1S)-1-Butyl-2-nitroxyethyl]-2-oxothiazolidin-4-yl-carboxamide] the “CI(60)” value (Collateral Vessel [1]) was over 10.
